Experimental findings from patent publication US20240182445A1 (ONO PHARMACEUTICAL CO., LTD., priority 2019, published 2024) are described below.

The pIC50 is the IC50 on a negative log10 scale, so that one unit is a factor of ten. Lower therefore signals a high IC50.

The structures appear in SMILES notation. pIC50: −log10 of the molar value.

For one experiment, the target named is T1, human TREK-1 (Homo sapiens, UniProt O95069).
T1 construct: expressed in transfected cells
T1 sequence (O95069 1-426): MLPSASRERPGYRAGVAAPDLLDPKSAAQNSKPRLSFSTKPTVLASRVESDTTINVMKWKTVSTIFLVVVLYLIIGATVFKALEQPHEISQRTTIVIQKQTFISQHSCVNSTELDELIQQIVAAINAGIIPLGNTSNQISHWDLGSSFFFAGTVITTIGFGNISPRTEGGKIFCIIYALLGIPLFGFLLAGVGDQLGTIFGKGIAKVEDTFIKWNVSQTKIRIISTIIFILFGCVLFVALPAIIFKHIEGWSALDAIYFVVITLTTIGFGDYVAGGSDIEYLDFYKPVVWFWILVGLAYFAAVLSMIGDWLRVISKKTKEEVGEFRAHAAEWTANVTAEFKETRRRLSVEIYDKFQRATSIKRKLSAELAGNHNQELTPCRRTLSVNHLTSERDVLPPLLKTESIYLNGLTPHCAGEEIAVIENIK
The experiment in a line: TREK-1 Thallium (Tl+) flux assay, Method 1. In kind it is cell-based. The conditions noted are these: TREK-1 Thallium (Tl+) flux assay, Method 1. The gist of the method: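 Readout: Thallos fluorescence ratio, taken 25 s post-thallium relative to the pre-thallium baseline average, then converted to % inhibition. Cells were CHO-K1 stably expressing human TREK-1, dye-loaded and exposed to test compound (vehicle 0.3% DMSO) for 10 min prior to thallium stimulation.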
On to `Cc1cc(-c2ccc(C(F)(F)F)nc2)cnc1NC(=O)c1c(Cl)cnn1C1CCN(C(=O)OC(C)(C)C)CC1` [Compound 396, tert-butyl 4-(4-chloro-5-((5-methyl-6′-(trifluoromethyl)-[3,3′-bipyridin]-6-yl)carbamoyl)-1H-pyrazol-1-yl)piperidine-1-carboxylate], for which the pIC50 was 5.80.
Still for that read-out and setting: then `Cc1cc(-c2cnn(-c3ccccc3)c2)cnc1NC(=O)c1c(Cl)cnn1C1CCN(C(=O)OC(C)(C)C)CC1` [Compound 413, tert-butyl 4-(4-chloro-5-((3-methyl-5-(1-phenyl-1H-pyrazol-4-yl)pyridin-2-yl)carbamoyl)-1H-pyrazol-1-yl)piperidine-1-carboxylate], with 5.45; and `Cc1cc(-c2ccc(-c3cccs3)cc2)cnc1NC(=O)c1c(Cl)cnn1C1CCN(C(=O)OC(C)(C)C)CC1` [Compound 410, tert-butyl 4-(4-chloro-5-((3-methyl-5-(4-(thiophen-2-yl)phenyl)pyridin-2-yl)carbamoyl)-1H-pyrazol-1-yl)piperidine-1-carboxylate], with 5.56.

The same experiment, now with this note: TREK-1 Thallium (Tl+) flux assay; no *^12 (Method 2) mark on these rows.
`COc1ccc(-c2cnc(NC(=O)c3c(Cl)cnn3C3CCN(C(=O)OC(C)(C)C)CC3)c(C)c2)cc1C(C)C` [Compound 390, tert-butyl 4-(4-chloro-5-((5-(3-isopropyl-4-methoxyphenyl)-3-methylpyridin-2-yl)carbamoyl)-1H-pyrazol-1-yl)piperidine-1-carboxylate]: the pIC50 was 5.92.
Same read-out and setting: then `Cc1cc(C#Cc2ccccc2)cnc1NC(=O)c1c(Cl)cnn1CC1(C)CCN(C(=O)C2COCCO2)CC1` (stereo not drawn) [Compound 251, 1-((1-(1,4-dioxane-2-carbonyl)-4-methylpiperidin-4-yl)methyl)-4-chloro-N-(3-methyl-5-(phenylethynyl)pyridin-2-yl)-1H-pyrazole-5-carboxamide], with 6.40; and `Cc1cc(C#Cc2ccccc2)cnc1NC(=O)c1c(Cl)cnn1CCC1CCCO1` (stereo not drawn) [Compound 321, 4-chloro-N-(3-methyl-5-(phenylethynyl)pyridin-2-yl)-1-(2-(tetrahydrofuran-2-yl)ethyl)-1H-pyrazole-5-carboxamide], with 6.20; and `Cc1cc(C#Cc2ccccc2)cnc1NC(=O)c1c(Cl)cnn1CC1(C)CCN(C(=O)OC(C)(C)C)CC1` [Compound 301, tert-butyl 4-((4-chloro-5-((3-methyl-5-(phenylethynyl)pyridin-2-yl)carbamoyl)-1H-pyrazol-1-yl)methyl)-4-methylpiperidine-1-carboxylate], with 6.27.
Same read-out and setting: then `Cc1cc(C#Cc2ccc(F)cc2)cnc1NC(=O)c1c(Cl)cnn1CC1(F)CCN(C(=O)C2CC2C)CC1` (stereo not drawn) [Compound 348, 4-chloro-1-((4-fluoro-1-(2-methylcyclopropane-1-carbonyl)piperidin-4-yl)methyl)-N-(5-((4-fluorophenyl)ethynyl)-3-methylpyridin-2-yl)-1H-pyrazole-5-carboxamide], with 6.11.
Same read-out and setting: with `CC(=O)N1CCC(n2ncc(Cl)c2C(=O)Nc2ncc(C#Cc3ccccc3)cc2C)C1` (stereo not drawn) [Compound 238, 1-(1-acetylpyrrolidin-3-yl)-4-chloro-N-(3-methyl-5-(phenylethynyl)pyridin-2-yl)-1H-pyrazole-5-carboxamide] the figure was 6.43.
`Cc1cc(C#Cc2ccccc2)cnc1NC(=O)c1c(Cl)cnn1CCC1CCN(C(=O)OC(C)(C)C)CC1` [Compound 308, tert-butyl 4-(2-(4-chloro-5-((3-methyl-5-(phenylethynyl)pyridin-2-yl)carbamoyl)-1H-pyrazol-1-yl)ethyl)piperidine-1-carboxylate] gave a negative logarithm of the IC50 (pIC50) of 6.24.
On the same count and under the same terms, then `Cc1cc(C#Cc2cccs2)cnc1NC(=O)c1c(Cl)cnn1C[C@H]1COCCO1` [Compound 343, (S)-1-((1,4-dioxan-2-yl)methyl)-4-chloro-N-(3-methyl-5-(thiophen-2-ylethynyl)pyridin-2-yl)-1H-pyrazole-5-carboxamide], with 6.12; and `Cc1cc(C#Cc2ccccc2)cnc1NC(=O)c1c(Cl)cnn1C[C@H]1COCCO1` [Compound 211, (S)-1-((1,4-dioxan-2-yl)methyl)-4-chloro-N-(3-methyl-5-(phenylethynyl)pyridin-2-yl)-1H-pyrazole-5-carboxamide], with 6.49.
`Cc1cc(C#Cc2ccccc2)cnc1NC(=O)c1c(Cl)cnn1CC1CCOC1` (stereo not drawn) [Compound 232, 4-chloro-N-(3-methyl-5-(phenylethynyl)pyridin-2-yl)-1-((tetrahydrofuran-3-yl)methyl)-1H-pyrazole-5-carboxamide] showed a pIC50 of 6.44.
Still for that read-out and setting: then `O=C(Nc1ncc(C#Cc2ccccc2)cc1Cl)c1c(Cl)cnn1C[C@H]1COCCO1` [Compound 361, (S)-1-((1,4-dioxan-2-yl)methyl)-4-chloro-N-(3-chloro-5-(phenylethynyl)pyridin-2-yl)-1H-pyrazole-5-carboxamide], with 6.04.

The experiment is the same for the next values; noted with them: TREK-1 Thallium (Tl+) flux assay; values without footnote *12 are Method 1.
`Cc1cc(C#Cc2ccccc2)cnc1NC(=O)c1c(Cl)cnn1CC1(C)CCN(C(=O)C2CC2C)CC1` (stereo not drawn) [Compound 184, 4-chloro-1-((4-methyl-1-(2-methylcyclopropane-1-carbonyl)piperidin-4-yl)methyl)-N-(3-methyl-5-(phenylethynyl)pyridin-2-yl)-1H-pyrazole-5-carboxamide] showed a pIC50 of 6.55.
For the molecule `CC(=O)N1CC[C@@H](n2ncc(Cl)c2C(=O)Nc2ncc(C#Cc3ccccc3)cc2C)[C@H](F)C1` [Compound 30, […]], the negative-log IC50 (pIC50) is 7.00.
In turn, `O=C(Nc1ncc(C#Cc2ccccc2)cc1F)c1c(Cl)cnn1C1CCN(C(=O)C(F)(F)F)CC1` [Compound 54, 4-chloro-N-(3-fluoro-5-(phenylethynyl)pyridin-2-yl)-1-(1-(2,2,2-trifluoroacetyl)piperidin-4-yl)-1H-pyrazole-5-carboxamide] had a negative-log IC50 (pIC50) of 6.85. The pIC50 values of the last two molecules are within 0.2 log units of each other.
On the same count and under the same terms, then `O=C(Nc1ncc(C#Cc2cccc(F)c2)cc1F)c1c(Cl)cnn1CC1CCOCC1` [Compound 50, 4-chloro-N-(3-fluoro-5-((3-fluorophenyl)ethynyl)pyridin-2-yl)-1-((tetrahydro-2H-pyran-4-yl)methyl)-1H-pyrazole-5-carboxamide], with 6.85; and `CC(=O)N1CC(n2ncc(Cl)c2C(=O)Nc2ncc(C#Cc3ccccc3)cc2C)C1` [Compound 122, 1-(1-acetylazetidin-3-yl)-4-chloro-N-(3-methyl-5-(phenylethynyl)pyridin-2-yl)-1H-pyrazole-5-carboxamide], with 6.68; and `CC(=O)N1CC(Cn2ncc(Cl)c2C(=O)Nc2ncc(C#Cc3ccccc3)cc2F)C1` [Compound 93, 1-((1-acetylazetidin-3-yl)methyl)-4-chloro-N-(3-fluoro-5-(phenylethynyl)pyridin-2-yl)-1H-pyrazole-5-carboxamide], with 6.74.
Same read-out and setting: with `Cc1cc(C#Cc2cccs2)cnc1NC(=O)c1c(Cl)cnn1C1CCN(C(=O)C(C)C)CC1` [Compound 111, 4-chloro-1-(1-isobutyrylpiperidin-4-yl)-N-(3-methyl-5-(thiophen-2-ylethynyl)pyridin-2-yl)-1H-pyrazole-5-carboxamide] the figure was 6.70; with `CC(=O)N1CC[C@H](n2ncc(Cl)c2C(=O)Nc2ncc(C#Cc3ccccc3)cc2C)[C@H](F)C1` [Compound 99, 1-((3R,4S)-1-acetyl-3-fluoropiperidin-4-yl)-4-chloro-N-(3-methyl-5-(phenylethynyl)pyridin-2-yl)-1H-pyrazole-5-carboxamide], 6.74.
As to `Cc1cc(C#Cc2ccccc2)cnc1NC(=O)c1c(Cl)cnn1C[C@H]1CCOC1` [Compound 147, (R)-4-chloro-N-(3-methyl-5-(phenylethynyl)pyridin-2-yl)-1-((tetrahydrofuran-3-yl)methyl)-1H-pyrazole-5-carboxamide], the negative-log IC50 (pIC50) was 6.62.
With `Cc1cc(C#Cc2ccccc2)cnc1NC(=O)c1c(Cl)cnn1CC1(F)CCN(C(=O)OC(C)(C)C)CC1` [Compound 155, tert-butyl 4-((4-chloro-5-((3-methyl-5-(phenylethynyl)pyridin-2-yl)carbamoyl)-1H-pyrazol-1-yl)methyl)-4-fluoropiperidine-1-carboxylate], the negative-log IC50 (pIC50) was 6.62.
Same read-out and setting: with `CC(=O)N1CCC(C#N)(Cn2ncc(Cl)c2C(=O)Nc2ncc(C#Cc3ccc(F)cc3)cc2C)CC1` [Compound 179, 1-((1-acetyl-4-cyanopiperidin-4-yl)methyl)-4-chloro-N-(5-((4-fluorophenyl)ethynyl)-3-methylpyridin-2-yl)-1H-pyrazole-5-carboxamide] the figure was 6.57; with `Cc1cc(C#Cc2ccc(F)cc2)cnc1NC(=O)c1c(Cl)cnn1[C@H]1CC[C@@H](NC(=O)C2COCCO2)CC1` (stereo partly drawn) [Compound 38, 1-(cis-4-(1,4-dioxane-2-carboxamido)cyclohexyl)-4-chloro-N-(5-((4-fluorophenyl)ethynyl)-3-methylpyridin-2-yl)-1H-pyrazole-5-carboxamide], 6.92; with `CC(=O)N1CCC(Cn2ncc(Cl)c2C(=O)Nc2ncc(C#Cc3ccccc3)cc2C)CC1` [Compound 85, 1-((1-acetylpiperidin-4-yl)methyl)-4-chloro-N-(3-methyl-5-(phenylethynyl)pyridin-2-yl)-1H-pyrazole-5-carboxamide], 6.77.
